Eleven compounds from ChEMBL document CHEMBL1145498, “A systematic interaction map of validated kinase inhibitors with Ser/Thr kinases” (Proc Natl Acad Sci U S A, 2007) can be followed below.

Assay [1] has as its target Serine/threonine-protein kinase pim-3 (Homo sapiens) (UniProt Q86V86).
For assay [2], the target named is STE20-like serine/threonine-protein kinase (Homo sapiens) (UniProt Q9H2G2).
The target of assay [3] is T1, 3-phosphoinositide-dependent protein kinase 1 (Homo sapiens) (UniProt O15530).
T1 sequence (whole entry): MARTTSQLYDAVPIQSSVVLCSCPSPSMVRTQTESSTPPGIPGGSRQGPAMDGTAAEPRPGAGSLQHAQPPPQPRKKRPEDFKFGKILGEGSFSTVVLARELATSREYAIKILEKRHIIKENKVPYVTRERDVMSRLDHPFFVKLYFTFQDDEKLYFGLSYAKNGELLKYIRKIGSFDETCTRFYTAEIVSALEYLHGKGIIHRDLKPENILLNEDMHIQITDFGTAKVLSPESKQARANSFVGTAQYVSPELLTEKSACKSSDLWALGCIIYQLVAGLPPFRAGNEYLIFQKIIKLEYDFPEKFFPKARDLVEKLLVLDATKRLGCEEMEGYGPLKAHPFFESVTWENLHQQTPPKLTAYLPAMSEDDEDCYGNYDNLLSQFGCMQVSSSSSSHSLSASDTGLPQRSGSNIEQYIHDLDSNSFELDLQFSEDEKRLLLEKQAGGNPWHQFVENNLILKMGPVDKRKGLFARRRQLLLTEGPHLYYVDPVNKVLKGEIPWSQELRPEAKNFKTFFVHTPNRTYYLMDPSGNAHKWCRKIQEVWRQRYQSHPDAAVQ

In assay [4] the target is Serine/threonine-protein kinase Chk2 (Homo sapiens, UniProt O96017).
Chain of Serine/threonine-protein kinase Chk2 (O96017 whole entry): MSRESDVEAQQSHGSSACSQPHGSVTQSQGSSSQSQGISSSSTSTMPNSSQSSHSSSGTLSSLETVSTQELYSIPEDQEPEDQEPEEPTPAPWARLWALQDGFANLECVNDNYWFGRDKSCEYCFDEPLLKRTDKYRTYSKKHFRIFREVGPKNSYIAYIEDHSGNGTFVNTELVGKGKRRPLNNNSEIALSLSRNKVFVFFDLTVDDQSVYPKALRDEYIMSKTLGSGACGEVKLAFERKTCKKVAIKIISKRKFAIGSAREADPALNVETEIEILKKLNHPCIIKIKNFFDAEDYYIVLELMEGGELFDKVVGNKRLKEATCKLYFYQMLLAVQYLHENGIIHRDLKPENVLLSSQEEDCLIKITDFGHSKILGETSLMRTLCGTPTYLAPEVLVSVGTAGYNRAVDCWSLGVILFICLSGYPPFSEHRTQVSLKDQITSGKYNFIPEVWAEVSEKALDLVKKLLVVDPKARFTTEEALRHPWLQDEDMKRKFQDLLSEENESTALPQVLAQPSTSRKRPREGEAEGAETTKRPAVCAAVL
In assay [5] the target is cAMP-dependent protein kinase catalytic subunit alpha (Homo sapiens) (UniProt P17612).
The target in assay [6] is Tyrosine-protein kinase JAK1 (Homo sapiens) (UniProt P23458).
Chain of Tyrosine-protein kinase JAK1 (Homo sapiens) (P23458 whole entry): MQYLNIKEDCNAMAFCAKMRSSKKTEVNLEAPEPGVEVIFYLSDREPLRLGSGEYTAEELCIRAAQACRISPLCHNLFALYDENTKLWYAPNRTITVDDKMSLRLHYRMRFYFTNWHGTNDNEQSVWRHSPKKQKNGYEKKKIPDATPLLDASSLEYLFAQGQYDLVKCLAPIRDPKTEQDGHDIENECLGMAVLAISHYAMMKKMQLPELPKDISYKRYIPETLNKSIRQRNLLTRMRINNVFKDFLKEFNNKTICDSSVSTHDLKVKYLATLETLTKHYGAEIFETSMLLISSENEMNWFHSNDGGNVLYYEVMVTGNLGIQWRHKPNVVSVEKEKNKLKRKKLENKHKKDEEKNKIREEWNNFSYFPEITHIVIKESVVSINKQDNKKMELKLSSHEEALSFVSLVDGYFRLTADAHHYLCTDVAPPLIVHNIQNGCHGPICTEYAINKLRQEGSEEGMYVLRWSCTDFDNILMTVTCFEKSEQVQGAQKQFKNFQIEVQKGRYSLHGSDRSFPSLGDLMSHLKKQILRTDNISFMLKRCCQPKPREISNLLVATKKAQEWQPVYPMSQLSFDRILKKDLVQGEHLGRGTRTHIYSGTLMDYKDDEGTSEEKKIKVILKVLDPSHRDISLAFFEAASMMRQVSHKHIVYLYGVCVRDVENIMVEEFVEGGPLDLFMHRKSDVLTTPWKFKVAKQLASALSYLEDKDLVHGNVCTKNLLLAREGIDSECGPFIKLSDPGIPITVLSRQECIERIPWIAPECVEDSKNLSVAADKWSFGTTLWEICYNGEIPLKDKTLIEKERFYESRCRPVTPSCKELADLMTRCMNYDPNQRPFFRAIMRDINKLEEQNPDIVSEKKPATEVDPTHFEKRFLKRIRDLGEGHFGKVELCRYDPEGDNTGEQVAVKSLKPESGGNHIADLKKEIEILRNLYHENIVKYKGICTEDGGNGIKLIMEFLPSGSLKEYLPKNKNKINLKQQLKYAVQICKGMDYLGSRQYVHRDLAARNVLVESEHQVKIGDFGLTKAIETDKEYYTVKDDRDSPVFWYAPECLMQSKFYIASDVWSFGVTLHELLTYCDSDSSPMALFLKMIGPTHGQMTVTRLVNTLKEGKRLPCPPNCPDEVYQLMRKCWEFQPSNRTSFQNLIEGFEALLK
The target of assay [7] is T2, Serine/threonine-protein kinase PLK4 (Homo sapiens) (UniProt O00444).
T2 sequence (whole entry): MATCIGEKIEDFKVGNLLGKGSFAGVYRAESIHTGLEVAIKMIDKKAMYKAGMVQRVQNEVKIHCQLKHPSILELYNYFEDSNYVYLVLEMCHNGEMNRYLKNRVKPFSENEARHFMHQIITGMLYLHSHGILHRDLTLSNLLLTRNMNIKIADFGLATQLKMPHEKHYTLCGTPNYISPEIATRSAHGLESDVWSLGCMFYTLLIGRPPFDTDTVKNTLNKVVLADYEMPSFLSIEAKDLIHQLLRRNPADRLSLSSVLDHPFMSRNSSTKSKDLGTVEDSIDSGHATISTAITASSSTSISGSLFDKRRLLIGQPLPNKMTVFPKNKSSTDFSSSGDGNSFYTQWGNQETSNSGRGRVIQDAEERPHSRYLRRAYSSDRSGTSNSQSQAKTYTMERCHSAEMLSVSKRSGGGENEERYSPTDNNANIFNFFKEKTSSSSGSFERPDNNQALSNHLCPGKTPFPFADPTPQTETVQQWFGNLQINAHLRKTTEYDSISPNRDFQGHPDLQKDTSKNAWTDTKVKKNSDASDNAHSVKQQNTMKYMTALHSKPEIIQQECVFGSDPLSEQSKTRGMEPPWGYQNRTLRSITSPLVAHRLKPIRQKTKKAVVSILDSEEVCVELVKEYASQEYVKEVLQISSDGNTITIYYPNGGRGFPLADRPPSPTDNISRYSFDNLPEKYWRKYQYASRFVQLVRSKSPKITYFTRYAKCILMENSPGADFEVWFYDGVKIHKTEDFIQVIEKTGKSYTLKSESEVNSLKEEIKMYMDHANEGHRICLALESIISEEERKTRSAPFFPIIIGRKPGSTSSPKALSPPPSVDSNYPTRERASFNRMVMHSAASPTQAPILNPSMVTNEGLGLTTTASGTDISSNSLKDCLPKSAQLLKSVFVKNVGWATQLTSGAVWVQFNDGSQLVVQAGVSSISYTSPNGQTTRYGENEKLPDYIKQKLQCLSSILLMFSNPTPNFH

Assay [8] concerns the target T3, Serine/threonine-protein kinase VRK1 (Homo sapiens) (UniProt Q99986).
T3 sequence (whole entry): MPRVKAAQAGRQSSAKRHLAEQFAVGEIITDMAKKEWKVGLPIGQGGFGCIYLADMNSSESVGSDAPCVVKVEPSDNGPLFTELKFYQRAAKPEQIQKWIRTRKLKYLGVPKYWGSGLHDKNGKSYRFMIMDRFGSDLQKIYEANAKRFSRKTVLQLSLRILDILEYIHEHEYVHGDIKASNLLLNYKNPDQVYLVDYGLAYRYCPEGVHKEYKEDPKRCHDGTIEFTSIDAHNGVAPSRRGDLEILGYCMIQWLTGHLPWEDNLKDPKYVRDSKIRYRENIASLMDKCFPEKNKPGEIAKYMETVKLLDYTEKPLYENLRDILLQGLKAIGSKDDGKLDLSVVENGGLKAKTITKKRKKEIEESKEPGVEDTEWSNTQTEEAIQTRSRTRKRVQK

Assay [9] has as its target Serine/threonine-protein kinase PAK 4 (Homo sapiens) (UniProt O96013).
The target in assay [10] is T4, Serine/threonine-protein kinase Nek2 (Homo sapiens) (UniProt P51955).
T4 sequence (whole entry): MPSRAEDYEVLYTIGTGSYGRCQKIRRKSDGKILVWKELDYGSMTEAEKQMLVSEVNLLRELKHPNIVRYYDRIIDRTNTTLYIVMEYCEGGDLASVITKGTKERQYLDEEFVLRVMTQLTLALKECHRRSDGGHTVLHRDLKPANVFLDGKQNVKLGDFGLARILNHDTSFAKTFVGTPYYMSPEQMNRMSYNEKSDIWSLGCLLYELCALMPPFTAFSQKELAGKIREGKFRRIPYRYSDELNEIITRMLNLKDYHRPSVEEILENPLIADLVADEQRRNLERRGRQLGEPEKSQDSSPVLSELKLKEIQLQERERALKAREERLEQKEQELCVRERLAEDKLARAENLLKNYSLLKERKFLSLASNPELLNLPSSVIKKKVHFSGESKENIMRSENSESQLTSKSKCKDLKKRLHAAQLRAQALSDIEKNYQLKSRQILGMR

For assay [11], the target named is Serine/threonine-protein kinase PAK 5 (Homo sapiens) (UniProt Q9P286).
Chain of Serine/threonine-protein kinase PAK 5 (Homo sapiens) (Q9P286 whole entry, looked up): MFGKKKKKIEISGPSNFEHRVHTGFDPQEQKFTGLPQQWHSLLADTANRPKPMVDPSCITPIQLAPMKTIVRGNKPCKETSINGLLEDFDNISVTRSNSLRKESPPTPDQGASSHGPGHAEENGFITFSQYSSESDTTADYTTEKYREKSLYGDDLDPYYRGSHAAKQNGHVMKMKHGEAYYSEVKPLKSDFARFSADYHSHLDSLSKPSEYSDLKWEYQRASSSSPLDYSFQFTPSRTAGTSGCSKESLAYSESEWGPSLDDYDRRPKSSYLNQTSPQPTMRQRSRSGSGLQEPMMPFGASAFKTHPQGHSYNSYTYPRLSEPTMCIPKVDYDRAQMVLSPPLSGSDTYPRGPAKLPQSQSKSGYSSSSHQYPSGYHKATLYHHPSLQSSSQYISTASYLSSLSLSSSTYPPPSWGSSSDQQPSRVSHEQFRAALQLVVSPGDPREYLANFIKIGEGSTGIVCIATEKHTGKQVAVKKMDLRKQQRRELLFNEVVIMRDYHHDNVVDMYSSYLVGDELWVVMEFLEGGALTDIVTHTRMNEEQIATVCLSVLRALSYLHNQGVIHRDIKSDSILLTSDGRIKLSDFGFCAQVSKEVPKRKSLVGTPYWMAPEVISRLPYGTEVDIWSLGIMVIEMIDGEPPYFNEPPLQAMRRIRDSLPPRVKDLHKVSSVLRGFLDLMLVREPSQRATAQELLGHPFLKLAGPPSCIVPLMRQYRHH
Assay [12] has as its target Mitogen-activated protein kinase 11 (Homo sapiens, UniProt Q15759).

Chain of STE20-like serine/threonine-protein kinase (Homo sapiens) (Q9H2G2 whole entry, looked up): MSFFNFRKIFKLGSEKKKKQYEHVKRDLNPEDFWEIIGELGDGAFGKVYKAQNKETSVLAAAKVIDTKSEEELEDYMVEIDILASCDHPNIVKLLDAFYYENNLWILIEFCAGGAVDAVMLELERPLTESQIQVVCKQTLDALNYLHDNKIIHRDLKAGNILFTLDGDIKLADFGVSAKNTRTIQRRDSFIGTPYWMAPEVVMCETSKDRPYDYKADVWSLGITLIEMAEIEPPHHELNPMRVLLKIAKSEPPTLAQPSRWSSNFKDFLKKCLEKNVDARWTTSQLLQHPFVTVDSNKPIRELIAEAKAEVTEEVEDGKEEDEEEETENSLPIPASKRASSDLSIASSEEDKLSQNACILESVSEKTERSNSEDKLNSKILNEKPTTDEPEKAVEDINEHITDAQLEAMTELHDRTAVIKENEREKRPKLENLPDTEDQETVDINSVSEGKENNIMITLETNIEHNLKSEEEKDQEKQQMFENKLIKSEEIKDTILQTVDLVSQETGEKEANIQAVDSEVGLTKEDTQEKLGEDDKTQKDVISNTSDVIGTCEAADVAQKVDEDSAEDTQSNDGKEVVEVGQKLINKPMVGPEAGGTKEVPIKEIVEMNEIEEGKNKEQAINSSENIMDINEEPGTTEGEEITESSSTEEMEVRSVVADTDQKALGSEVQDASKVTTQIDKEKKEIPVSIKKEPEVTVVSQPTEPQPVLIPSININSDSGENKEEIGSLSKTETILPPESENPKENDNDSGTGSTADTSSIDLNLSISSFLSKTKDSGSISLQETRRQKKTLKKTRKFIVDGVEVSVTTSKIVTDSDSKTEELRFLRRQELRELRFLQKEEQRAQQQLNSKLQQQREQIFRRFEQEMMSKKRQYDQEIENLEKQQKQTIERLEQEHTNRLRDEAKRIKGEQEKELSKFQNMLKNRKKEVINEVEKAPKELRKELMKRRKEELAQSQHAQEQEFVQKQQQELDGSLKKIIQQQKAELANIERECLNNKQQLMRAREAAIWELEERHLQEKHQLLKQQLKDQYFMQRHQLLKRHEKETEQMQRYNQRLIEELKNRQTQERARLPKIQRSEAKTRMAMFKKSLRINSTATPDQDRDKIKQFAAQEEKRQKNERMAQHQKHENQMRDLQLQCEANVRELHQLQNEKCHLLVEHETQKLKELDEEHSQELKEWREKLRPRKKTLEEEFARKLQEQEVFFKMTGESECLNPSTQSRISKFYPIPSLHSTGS
Chain of Mitogen-activated protein kinase 11 (Q15759 whole entry): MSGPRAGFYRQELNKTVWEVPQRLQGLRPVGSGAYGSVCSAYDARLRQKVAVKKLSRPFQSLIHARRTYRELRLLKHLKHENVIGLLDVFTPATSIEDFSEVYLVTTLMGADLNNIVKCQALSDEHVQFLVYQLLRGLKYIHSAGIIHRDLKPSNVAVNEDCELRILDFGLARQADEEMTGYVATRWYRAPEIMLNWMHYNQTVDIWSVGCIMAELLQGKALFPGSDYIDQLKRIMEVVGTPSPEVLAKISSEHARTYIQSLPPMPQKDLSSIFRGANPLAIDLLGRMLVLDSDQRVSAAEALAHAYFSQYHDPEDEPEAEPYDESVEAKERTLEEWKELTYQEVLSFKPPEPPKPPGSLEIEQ
Chain of Serine/threonine-protein kinase PAK 4 (Homo sapiens) (O96013 whole entry, looked up): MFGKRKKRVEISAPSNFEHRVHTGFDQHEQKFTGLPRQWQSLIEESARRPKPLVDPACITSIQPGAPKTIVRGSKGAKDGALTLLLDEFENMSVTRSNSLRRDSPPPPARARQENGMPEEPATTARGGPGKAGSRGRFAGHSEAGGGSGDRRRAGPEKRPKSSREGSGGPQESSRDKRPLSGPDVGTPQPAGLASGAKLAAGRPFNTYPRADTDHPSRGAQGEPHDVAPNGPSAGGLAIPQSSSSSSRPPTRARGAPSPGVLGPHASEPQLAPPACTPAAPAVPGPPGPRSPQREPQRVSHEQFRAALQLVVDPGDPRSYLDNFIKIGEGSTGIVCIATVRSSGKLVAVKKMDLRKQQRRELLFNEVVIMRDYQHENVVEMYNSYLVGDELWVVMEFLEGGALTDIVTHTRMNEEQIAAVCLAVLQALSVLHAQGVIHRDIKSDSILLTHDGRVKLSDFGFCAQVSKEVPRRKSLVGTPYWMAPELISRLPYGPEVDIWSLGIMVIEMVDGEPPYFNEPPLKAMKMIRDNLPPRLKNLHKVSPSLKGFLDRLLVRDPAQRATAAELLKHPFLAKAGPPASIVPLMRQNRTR

Consider `CC(C)n1cnc2/c(=N/c3cccc(Cl)c3)nc(NCCO)[nH]c21`, for which the ΔTm (usually the change in melting temperature against a reference sample) in [1] came to 2.3 °C; in assay [2], 1.6 °C; in assay [3], 0 °C; in assay [4] it was 1.7 °C; in assay [5] it was 1.4 °C; in assay [6], 3.7 °C. Besides, the shift in melting temperature (ΔTm) in assay [7] is 1.3 °C; in [8], 0.5 °C; in assay [9] it was 2.9 °C; in assay [10], 1.3 °C; in assay [11], 1.6 °C; in [12] it was -0.1 °C.

Turning to `COc1cc2c(cc1OC)-c1n[nH]c(Nc3cccc(F)c3)c1C2`, the ΔTm is 2.6 °C in assay [1]; 2.1 °C in [2]; -0.2 °C in [3]; -0.1 °C in [4]; 0.9 °C in assay [5]; 0.4 °C in [6]. Also, the ΔTm is 1.5 °C in assay [7]; 0.4 °C in assay [8]; 0 °C in assay [9]; 0.6 °C in assay [10]; -0.1 °C in assay [11]; 0.1 °C in assay [12].

As for `CCCCc1c(-c2ccc(O)cc2)[nH]c2nccnc12` [ALOISINE A], the thermal shift (ΔTm) in assay [1] was 7.7 °C; in assay [2], 6.8 °C; in assay [3], 4 °C; in [4] it was 5.7 °C; in assay [5], 3.8 °C; in assay [6], 0.5 °C. For the same compound, the ΔTm in assay [7] was 3.4 °C; in assay [8] it was -0.2 °C; in assay [9], 2.6 °C; in assay [10], -0.4 °C; in assay [11], 2.2 °C; in assay [12] it was 1 °C.

On to `Cc1nc2sccn2c(=O)c1CCN1CCC(=C(c2ccccc2)c2ccc(F)cc2)CC1`, for which the thermal shift (ΔTm) is 6.1 °C in assay [1]; 1 °C in assay [2]; -0.8 °C in assay [3]; 0.4 °C in assay [4]; 1.6 °C in assay [5]; 4.8 °C in assay [6]. The ΔTm in assay [7] was 2.8 °C; in assay [8], 0.3 °C; in assay [9], 0.8 °C; in [10] it was 0.1 °C; in assay [11], 1 °C; in assay [12], -0.7 °C.

Turning to `NCCNS(=O)(=O)c1cccc2c(Cl)cccc12`, the shift in melting temperature (ΔTm) in [1] is 3.2 °C; in assay [2], 0.1 °C; in [3] it was -0.2 °C; in [4] it was 0.2 °C; in [5], 2.5 °C; in assay [6], 0.2 °C. Also, the ΔTm in assay [7] was 0.6 °C; in [8] it was 0 °C; in [9], 0.5 °C; in assay [10], 0.7 °C; in assay [11], 0.1 °C; in assay [12], -0.2 °C.

`Cn1cnc2c(NCc3ccccc3)nc(NCCO)nc21` [OLOMOUCINE]: the ΔTm is -0.1 °C in assay [1]; 0 °C in assay [2]; 0 °C in assay [3]; -0.6 °C in assay [4]; -0.1 °C in assay [5]; 0 °C in [6]. Further, the shift in melting temperature (ΔTm) is 0.2 °C in assay [7]; 0.4 °C in [8]; 0.4 °C in assay [9]; 1.1 °C in assay [10]; -0.1 °C in [11]; -0.1 °C in assay [12].

Consider `C/C(O)=C(\C#N)C(=O)Nc1cc(Br)ccc1Br`, for which the shift in melting temperature (ΔTm) is 3.8 °C in assay [1]; 0.4 °C in assay [2]; -3.7 °C in [3]; 0.5 °C in assay [4]; 1.4 °C in assay [5]; 0.7 °C in assay [6]. In addition, the thermal shift (ΔTm) is 1.1 °C in assay [7]; 0 °C in [8]; -0.3 °C in [9]; 0.9 °C in [10]; 0.4 °C in assay [11]; 0.3 °C in assay [12].

Take `C[C@@H]1C[C@H]2O[C@@H]2/C=C\C=C\C(=O)Cc2c(Cl)c(O)cc(O)c2C(=O)O1` [RADICICOL]: the ΔTm was 0.5 °C in [1]; 0.4 °C in assay [2]; 0.2 °C in [3]; 1.6 °C in assay [4]; 0.7 °C in assay [5]; -0.2 °C in assay [6]. For the same compound, the thermal shift (ΔTm) in assay [7] is 0.5 °C; in [8], -0.2 °C; in assay [9] it was 1.3 °C; in [10] it was 0.2 °C; in assay [11] it was 0.6 °C; in [12], 0.7 °C.

As for `CSc1nc(-c2ccc(F)cc2)c(-c2ccnc(NC(C)c3ccccc3)c2)[nH]1` (racemic), the shift in melting temperature (ΔTm) in [1] is -0.5 °C; in [2] it was 0.8 °C; in assay [3], -0.9 °C; in assay [4], 0.7 °C; in assay [5], -0.7 °C; in assay [6] it was 0.9 °C. Also, the shift in melting temperature (ΔTm) came out at 0.3 °C in assay [7]; 0.9 °C in assay [8]; 0.2 °C in [9]; 0.9 °C in assay [10]; 0 °C in [11]; 9.5 °C in [12].

Take `Nc1cccc(-c2cc3c(Oc4cccc(O)c4)ncnc3[nH]2)c1`: the thermal shift (ΔTm) in assay [1] was 0.3 °C; in assay [2], 6.7 °C; in [3], -0.1 °C; in assay [4] it was 1.7 °C; in assay [5], -0.6 °C; in assay [6] it was 4.3 °C. Moreover, the shift in melting temperature (ΔTm) in assay [7] was 0.8 °C; in assay [8], 0.8 °C; in assay [9] it was 2.8 °C; in [10] it was 2.6 °C; in assay [11], 1.7 °C; in assay [12], 5.4 °C.

For `CCOC(=O)c1c(C)[nH]c(/C=C2\C(=O)Nc3ccccc32)c1C`, the ΔTm in assay [1] was 0.3 °C; in assay [2], 1.6 °C; in assay [3], 0.2 °C; in assay [4] it was 0.7 °C; in assay [5], -1.6 °C; in assay [6] it was 8.5 °C. Further, the ΔTm in assay [7] is 2.3 °C; in assay [8] it was -1.7 °C; in [9], 0.9 °C; in assay [10], 0.5 °C; in assay [11], -0.5 °C; in assay [12], -0.4 °C.
